Laboratory results taken from patent publication US8846739B2, “TGR5 agonists” (Exelixis Patent Company LLC, priority 2009, dated 2014).

Key:
h-TGR5 = biological target: T1, h-TGR5 (Homo sapiens, UniProt Q8TDU6); experiment: TGR5 cAMP Assay using Cisbio cAMP Dynamic 2 htrf assay kit; assay type: cell-based; conditions: hTGR5CRE-luc HEK 293 cells
T1 sequence (Q8TDU6 1-330): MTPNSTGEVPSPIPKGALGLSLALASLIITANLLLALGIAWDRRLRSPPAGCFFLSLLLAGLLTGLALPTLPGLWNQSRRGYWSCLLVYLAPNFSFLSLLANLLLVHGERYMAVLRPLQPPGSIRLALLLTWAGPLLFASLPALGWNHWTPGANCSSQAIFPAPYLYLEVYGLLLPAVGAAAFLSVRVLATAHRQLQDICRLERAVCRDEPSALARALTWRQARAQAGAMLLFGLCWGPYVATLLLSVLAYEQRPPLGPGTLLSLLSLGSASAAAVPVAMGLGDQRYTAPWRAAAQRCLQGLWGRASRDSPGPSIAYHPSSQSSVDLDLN
Procedure: Compounds were diluted in DPBS with 5% DMSO (8-point serial dilution by half logs) in a 96-well plate and 1 μL was transferred to a 384-well assay plate in quadruplicate. The d2-cAMP and anti-cAMP Ab-cryptate stock solution were prepared as per the instructions in the Cisbio™ (Bedford, Mass.) kit. Cells (hTGR5CRE-luc HEK 293 and mTGR5CRE-luc HEK 293) were harvested using cell dissociation buffer and resuspended in DPBS. Cells were adjusted to 0.44×10^6 cells/ml followed by addition of IBMX to a final concentration of 0.5 mM. The cells were then mixed with d2-cAMP solution (7.1 mL cells+100 ul d2-cAMP) and 4000 cells (9 μL) were transferred to each well of the 384-well assay plate. Cells without d2-cAMP were added to eight wells as a negative control. The plate was covered and incubated at room temp for 30 min. Then 10 μL of Ab-cryptate solution was added to each well of the assay plate and incubated for 1 hr. The plate was read on an EnVision™ plate reader (Perkin-Elmer, Waltham, Mass.) and the DeltaF value was calculated as per the instructions in the Cisbio™ kit.
(§1) In the following tables, ECso values determined according to the TGR5 cAMP Assay are noted (cAMP); EC50 values determined according to the TGR5/CRE-Luciferiase Assay are noted (CRE-Luc).

human TGR5 (h-TGR5) = biological target: T2, human TGR5 (h-TGR5) (Homo sapiens, UniProt Q8TDU6); experiment: TGR5/CRE-Luciferase Assay; assay type: cell-based; conditions: HEK 293 hTGR5/CRE-Luc cells, 6 hours incubation, read-out: CRE-Luc Agonist (EC50)
T2 sequence (Q8TDU6 1-330): T1 sequence (Q8TDU6 1-330)
Procedure: HEK 293 cells stably expressing human TGR5 (h-TGR5) or mouse TGR5 (m-TGR5) were generated from HEK 293 CRE-Luciferase cells. The day before the assay, HEK 293 hTGR5/CRE-Luc cells were plated in DMEM in a 384 well assay plate at a density of 25 k cells/45 μL per well and grown for 18-20 hours. Compounds were serially diluted in DMEM containing 5% DMSO and 5 µL of compound or media alone was transferred to each well and plates were incubated for 6 hours. Following incubation, 30 μL of lysis/luciferase buffer was added to each well. The luciferase activity was then measured on the EnVision™ plate reader and the dose response data was analyzed using ActivityBase.
as §1

SMILES | EC50 (h-TGR5) [nM] | EC50 (human TGR5 (h-TGR5)) [nM]
COc1cc(C(C)(C)c2cnc(COc3c(F)cc(S(=O)(=O)N(C)CCC[N+](C)(C)C)cc3Cl)n2-c2ccc(F)cc2)ccc1Cl [Compound 12e, 3-(3-Chloro-4-((5-(2-(4-chloro-3-methoxyphenyl)propan-2-yl)-1-(4-fluorophenyl)-1H-imidazol-2-yl)methoxy)-5-fluoro-N-methylphenylsulfonamido)-N,N,N-trimethylpropan-1-aminium 2,2,2-trifluoroacetate] | < 100 | < 100
COc1cc(C(C)(C)c2cnc(SCc3c(F)cc(S(=O)(=O)N(CCO)CCC[N+](C)(C)C)cc3F)n2-c2ccc(F)cc2)ccc1Cl [Compound 12f, 3-(4-((5-(2-(4-Chloro-3-methoxyphenyl)propan-2-yl)-1-(4-fluorophenyl)-1H-imidazol-2-ylthio)methyl)-3,5-difluoro-N-(2-hydroxyethyl)phenylsulfonamido)-N,N,N-trimethylpropan-1-aminium 2,2,2-trifluoroacetate] | < 100 | < 100
COc1cc(C(C)(C)c2cnc(SCc3c(F)cc(S(=O)(=O)N(CCCO)CCC[N+](C)(C)C)cc3F)n2-c2ccc(F)cc2)ccc1Cl [Compound 12g, 3-(4-((5-(2-(4-chloro-3-methoxyphenyl)propan-2-yl)-1-(4-fluorophenyl)-1H-imidazol-2-ylthio)methyl)-3,5-difluoro-N-(3-hydroxypropyl)phenylsulfonamido)-N,N,N-trimethylpropan-1-aminium 2,2,2-trifluoroacetate] | < 100 | < 100
COc1cc(C(C)(C)c2cnc(SCc3c(F)cc(S(=O)(=O)N(CCC[N+](C)(C)C)CC(N)=O)cc3F)n2-c2ccc(F)cc2)ccc1Cl [Compound 12h, 3-(N-(2-amino-2-oxoethyl)-4-((5-(2-(4-chloro-3-methoxyphenyl)propan-2-yl)-1-(4-fluorophenyl)-1H-imidazol-2-ylthio)methyl)-3,5-difluorophenylsulfonamido)-N,N,N-trimethylpropan-1-aminium 2,2,2-trifluoroacetate] | < 100 | < 100
COC(=O)[C@@H](C)N(CCC[N+](C)(C)C)S(=O)(=O)c1cc(F)c(CSc2ncc(C(C)(C)c3ccc(Cl)c(OC)c3)n2-c2ccc(F)cc2)c(F)c1 [Compound 14, (R)-3-(4-((5-(2-(4-chloro-3-methoxyphenyl)propan-2-yl)-1-(4-fluorophenyl)-1H-imidazol-2-ylthio)methyl)-3,5-difluoro-N-(1-methoxy-1-oxopropan-2-yl)phenylsulfonamido)-N,N,N-trimethylpropan-1-aminium 2,2,2-trifluoroacetate] | < 100 | < 100

Results, then the molecule that gave them:

EC50 (h-TGR5) [nM] | EC50 (human TGR5 (h-TGR5)) [nM] | SMILES
100 to 1000 | 100 to 1000 | CC(C)(c1ccc(Cl)c(O)c1)c1cnc(SCc2c(F)cc(S(=O)(=O)NCCC[N+](C)(C)C)cc2F)n1-c1ccc(F)cc1 [Compound 13a, 3-(4-((5-(2-(4-chloro-3-hydroxyphenyl)propan-2-yl)-1-(4-fluorophenyl)-1H-imidazol-2-ylthio)methyl)-3,5-difluorophenylsulfonamido)-N,N,N-trimethylpropan-1-aminium 2,2,2-trifluoroacetate]
< 100 | < 100 | COc1cc(C(C)(C)c2cnc(SCc3c(F)cc(S(=O)(=O)N(CCC[N+](C)(C)C)[C@H](C)C(=O)O)cc3F)n2-c2ccc(F)cc2)ccc1Cl [Compound 14a, (R)-3-(N-(1-carboxyethyl)-4-((5-(2-(4-chloro-3-methoxyphenyl)propan-2-yl)-1-(4-fluorophenyl)-1H-imidazol-2-ylthio)methyl)-3,5-difluorophenylsulfonamido)-N,N,N-trimethylpropan-1-aminium 2,2,2-trifluoroacetate]
< 100 | < 100 | COc1cc(C(C)(C)c2cnc(SCc3c(F)cc(S(=O)(=O)N(CCCC[N+](C)(C)C)[C@H](C)C(=O)O)cc3Cl)n2-c2ccc(F)cc2)ccc1Cl [Compound 14aa, 4-([(1R)-1-carboxyethyl]{[3-chloro-4-({[5-{1-[4-chloro-3-(methyloxy)phenyl]-1-methylethyl}-1-(4-fluorophenyl)-1H-imidazol-2-yl]thio}methyl)-5-fluorophenyl]sulfonyl}amino)-N,N,N-trimethylbutan-1-aminium]
< 100 | < 100 | CC[C@H](C(=O)O)N(CCC[N+](C)(C)C)S(=O)(=O)c1cc(F)c(CSc2ncc(C(C)(C)c3ccc(Cl)c(OC)c3)n2-c2ccc(F)cc2)c(Cl)c1 [Compound 14ab, 3-([(1R)-1-carboxypropyl]{[3-chloro-4-({[5-{1-[4-chloro-3-(methyloxy)phenyl]-1-methylethyl}-1-(4-fluorophenyl)-1H-imidazol-2-yl]thio}methyl)-5-fluorophenyl]sulfonyl}amino)-N,N,N-trimethylpropan-1-aminium]
< 100 | < 100 | COc1cc(C(C)(C)c2cnc(SCc3c(F)cc(S(=O)(=O)N(CCC[N+](C)(C)C)[C@H](C(=O)O)[C@@H](C)O)cc3Cl)n2-c2ccc(F)cc2)ccc1Cl [Compound 14ac, 3-([(1S,2R)-1-carboxy-2-hydroxypropyl]{[3-chloro-4-({[5-{1-[4-chloro-3-(methyloxy)phenyl]-1-methylethyl}-1-(4-fluorophenyl)-1H-imidazol-2-yl]thio}methyl)-5-fluorophenyl]sulfonyl}amino)-N,N,N-trimethylpropan-1-aminium]
< 100 | < 100 | COc1cc(C(C)(C)c2cnc(SCc3c(F)cc(S(=O)(=O)N(CCCCC[N+](C)(C)C)[C@H](C)C(=O)O)cc3Cl)n2-c2ccc(F)cc2)ccc1Cl [Compound 14ad, 5-([(1R)-1-carboxyethyl]{[3-chloro-4-({[5-{1-[4-chloro-3-(methyloxy)phenyl]-1-methylethyl}-1-(4-fluorophenyl)-1H-imidazol-2-yl]thio}methyl)-5-fluorophenyl]sulfonyl}amino)-N,N,N-trimethylpentan-1-aminium]
100 to 1000 | < 100 | COc1ccc(CN(CCC[N+](C)(C)C)S(=O)(=O)c2cc(F)c(CSc3ncc(C(C)(C)c4ccc(Cl)c(OC)c4)n3-c3ccc(F)cc3)c(F)c2)cc1 [Compound 14ae, 3-({[4-({[5-{1-[4-chloro-3-(methyloxy)phenyl]-1-methylethyl}-1-(4-fluorophenyl)-1H-imidazol-2-yl]thio}methyl)-3,5-difluorophenyl]sulfonyl}{[4-(methyloxy)phenyl]methyl}amino)-N,N,N-trimethylpropan-1-aminium]
< 100 | < 100 | COC(=O)C(C)(C)N(CCC[N+](C)(C)C)S(=O)(=O)c1cc(F)c(CSc2ncc(C(C)(C)c3ccc(Cl)c(OC)c3)n2-c2ccc(F)cc2)c(F)c1 [Compound 14af, 3-({[4-({[5-{1-[4-chloro-3-(methyloxy)phenyl]-1-methylethyl}-1-(4-fluorophenyl)-1H-imidazol-2-yl]thio}methyl)-3,5-difluorophenyl]sulfonyl}[1,1-dlmethyl-2-(methyloxy)-2-oxoethyl]amino)-N,N,N-trimethylpropan-1-aminium]
100 to 1000 | < 100 | COc1cc(C(C)(C)c2cnc(SCc3c(F)cc(S(=O)(=O)N(CCC[N+](C)(C)C)[C@@H](CCC(=O)O)C(=O)O)cc3F)n2-c2ccc(F)cc2)ccc1Cl [Compound 14ag, (S)-3-(4-((5-(2-(4-chloro-3-methoxyphenyl)propan-2-yl)-1-(4-fluorophenyl)-1H-imidazol-2-ylthio)methyl)-N-(1,3-dicarboxypropyl)-3,5-difluorophenylsulfonamido)-N,N,N-trimethylpropan-1-aminium]
< 100 | < 100 | COc1cc(C(C)(C)c2cnc(SCc3c(F)cc(S(=O)(=O)N(CCCC[N+](C)(C)C)C(C)(C)C(=O)O)cc3F)n2-c2ccc(F)cc2)ccc1Cl [Compound 14ai, 4-(N-(2-carboxypropan-2-yl)-4-((5-(2-(4-chloro-3-methoxyphenyl)propan-2-yl)-1-(4-fluorophenyl)-1H-imidazol-2-ylthio)methyl)-3,5-difluorophenylsulfonamido)-N,N,N-trimethylbutan-1-aminium 2,2,2-trifluoroacetate]
